Drawing on paper PMC9021288 (Nature Communications, 2022), this text covers hepatocyte CLint for one compound.

The structures appear in SMILES notation.

This data set is described as follows: Human hepatocyte clearance (relay assay). Particulars: human, hepatocytes. From the text: Briefly, cryopreserved human primary hepatocytes were thawed and cultured as described above.

For the compound `C[C@@H](CNC(=O)[C@H](O)C(C)(C)CO)NC(=O)c1cc(C#N)ccc1F` [MMV693182], the hepatocyte CLint (in general, the rate of metabolic loss divided by the concentration) came to 0.2 µL/min/1e6 cells.
